The source of these data is publication PMC9468151, “Identification of a binding site on soluble RANKL that can be targeted to inhibit soluble RANK-RANKL interactions and treat osteoporosis” (Nature Communications, 2022).

“And” between values parts separate entries of the source, which are not always exact repeats. Equal entries are not always repeated.

For test [1], the system named is NF-κB, MAPK and PI3K-AKT signaling. The test can be described thus: Western blotting of RANKL-RANK signaling in RAW264.7 cells. As to conditions: RAW264.7, 5 μM. Type of test: cell-based, mouse. As to the method:
The mRNA expression level of S3-15 was measured by RT–qPCR as primary described. Total cellular RNA sample was prepared using RNAiso Plus, followed by reverse transcription with PrimeScript™ MixRT Master Mix reverse transcriptase kit. Then quantitative real-time PCR assays were performed with TB Green™ premix EX Taq™ II kit on an Applied Biosystems. […] signaling inhibiting effect was determined by western blotting. RAW264.7 cells were treated with 5 μM S3-15 with or without sRANKL (100 ng/mL) for 5, 10, 30 and 60 min after starved for 1 h. Then the cells were washed with cold PBS and lysed by RIPA Lysis Buffer. Cell lysates were then processed for Western Blotting analyses. Primary antibody binding was detected using rat secondary antibodies (1:5000) coupled with enhanced chemiluminescence (ECL) reagents (Thermo Scientific) and visualized on Tanon 5200. Primers used for qPCR and antibodies used for western blotting were seen supplementary materials for details.
On the technique in general: In western blotting, separated proteins are transferred to a membrane and probed.

The subject of test [2] is OVX mice. The test can be described thus: Osteoporosis therapeutic study in OVX mice (micro-CT). The format is in vivo, mouse. Particulars: S3-15 10 mg/kg/day 4 weeks, individual animals. As to the method:
Female SD rats or C57BL/6 mice were cared until they grown up to 6 months old or 10 weeks old, respectively. Then we subjected them to either bilateral ovariectomy or sham operation after anesthesia with 10% chloral hydrate (0.3 mL/100 g). Then all the rats or mice were intramuscular injected of penicillin to prevent infection in the first week of surgery. For rat experiments, after 12 weeks of operation, 3 rats from sham-operated or ovariectomized groups were random selected to determine bone mass by micro-CT imaging biopsy to verify successful produced bone loss(data unshown). Then the OVX rats were individually administrated with S3-15, S3, and S3-05 orally with (10 mg/kg/day) for another 12 weeks. For mouse experiments, after 4 weeks of surgery, the OVX mice were treated with 10 mg/kg/day S3-15 for another 4 weeks.
The weight of rats or mice were recorded every week in the treatment period. After treatment, the rats were harvested, the serum, heart, liver, spleen, lung, kidney, thymus, and femurs were all collected and subjected to subsequent analysis. The right femurs of rats or mice were cleaned excess soft tissue, fixed in 10% formalin, and processed them for microcomputed tomography (micro-CT) analysis. Left mice femurs were collected and excarnate for biomechanical strength testing. Mice peripheral blood were as well as collected for flow cytometry analyzing.
The right femurs of rats or mice were further analyzed with micro-CT on Inveon PET/CT (Siemens, Germany). We used micro-CT to scan the femur from the femoral head to the femoral condyle, using 19 μm resolution, 80 kV 500uA, 360 projection, 3000-6000 image threshold, full rotation cone beam. Three-dimensional reconstruction and histomorphometric analyses of trabecular bone were conducted with the IAW (Inveon analysis workstation) analysis software. […] Trabecular bone parameters were measured including bone volume/tissue volume (BV/TV), bone surface area/bone volume (BS/BV), trabecular number (Tb.N), trabecular thickness (Tb.Th), trabecular separation(Tb.Sp) and trabecular pattern factor(Tb.P.F).

Test [3] deals with OVX mice. The test can be described thus: Histological examination of femur (TRAP staining). Type of test: in vivo, mouse. As to the method: The mice left femur was fixed in paraformaldehyde for 72 h, demineralized using 10% Ethylenediamine tetra-acetic acid (EDTA-2Na) for 3 weeks, and then dehydrated with ethanol, clarified with xylene, and embedded with paraffin. Paraffin embedded tissue was sectioned on a rotary microtome. The sectioned tissues were stained with TRAP.

Test [4] relates to OVX mice. As to the kind of experiment: Splenic lymphocyte transformation test. Also noted: key: OD (MTT) of stimulated minus unstimulated cells. Particulars: OVX mice + S3-15 4 weeks, individual animals. Type of test: in vivo, mouse. As to the method: Spleens were aseptically isolated from sham group, OVX group and OVX treatment group after treating S3-15 for 4 weeks in a clean bench (II Class biosafety Cabinets, Escolifesciences, Singapore). Splenic single cell suspensions were obtained by gentle squeezing spleen tissue by injecting 2 mL cold Hank’s solution. Splenic cells were filtered through 40 μm nylon filters (BD Biosciences, Darmstadt, Germany), and centrifuged at 1400 × g for 10 min. Then cells were resuspended in 1640 completed medium (containing 10%FBS, 1% penicillin/streptomycin, 1% glutamine (200 mmol/L) and 5 × 10^−5 mol/L 2-mercaptoethanol) with a concentration of 5 × 10^6 cells/mL and seeded 100 μL into 96-well plates. Two wells for each mouse, and one well stimulated with 50 μL […] (Sigma-Aldrich®, Germany) solution (working concentration 7.5 μg/mL in 1640 completed medium), another well added 50 μL 1640 complete medium as a control. After that, the plates were incubated at 37 °C in a CO2 incubator at 5% CO2 for 72 h. After stimulation, cells were measured by MTT method. Stimulation of cell proliferation ability was determined as the absorbance (OD) value of stimulated minus unstimulated cells for each cell sample.

Another test deals with T1, L-RANKL (Rattus norvegicus, UniProt Q9ESE2, D175N).
T1 construct: (3) mRANKL (sRANKL-GSGS-sRANKL, rat 159-318 aa); His6-sumo (N); made in house; host or cells: Escherichia coli BL21 (DE3)
As to the kind of experiment: STD NMR binding assay with L-RANKL. Particulars: 100 μM protein, 5 mM compound. As to the method: For NMR studies, purified sRANKL or L-RANKL protein samples were buffer exchanged into PBS (Gbico, C10010500BT, pH7.4) using a Millipore spin column (1500 × g for 15 min at 4 °C, repeated six times, each time adding fresh PBS and discarding the flow-through). Protein concentration was determined using BCA method according to the procedure of Pierce^TM BCA Protein Assay Kit (Thermo Fisher Scientific). Compound S3-15 powder was dissolved in H2O as a concentration of 10 mM.
Protein saturation transfer difference (STD) experiments were performed on Bruker Avance III 500 (500 MHz) spectrometer (Columbia University) at 300 K using triple-resonance cryogenic probes optimized for proton detection. All experiments were performed using an independent sample for each experimental measurement as a 500 μL sample in NMR tubes with 100 μM protein and […] S3-15 in final concentration. Uniformly, for STD assay all samples were contained 50 μL protein, 200 μL S3-15 (10 mM in H2O), and 250 μL D2O; for S3-15 two-dimensional spectra reference, samples were 50 μL PBS, 200 μL S3-15 (10 mM in H2O) and 250 μL D2O.

T1 sequence (Q9ESE2 with tags, fused parts or gaps D175N): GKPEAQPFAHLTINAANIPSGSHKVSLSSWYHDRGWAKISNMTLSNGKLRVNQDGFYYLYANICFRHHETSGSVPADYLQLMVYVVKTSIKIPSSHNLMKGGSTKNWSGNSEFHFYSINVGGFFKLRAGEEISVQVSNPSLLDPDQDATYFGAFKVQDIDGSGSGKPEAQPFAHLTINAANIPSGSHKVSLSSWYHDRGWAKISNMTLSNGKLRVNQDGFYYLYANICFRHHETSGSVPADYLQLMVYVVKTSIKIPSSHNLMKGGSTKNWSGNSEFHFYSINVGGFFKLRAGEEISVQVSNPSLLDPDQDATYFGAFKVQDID

As for `CC(=O)/C(=N\Nc1ccccc1C(=O)O)C(=O)Nc1ccccn1` [S3-15], in test [1], the “MAPK signaling (phosphorylation of ERK, JNK, p38)” value is recorded as “abrogated MAPK signaling”; the “PI3K-AKT signaling (phosphorylation of PI3K, AKT)” value is listed as “reduced PI3K-AKT signaling”; the “RANKL-induced NF-κB signaling (phosphorylation of IKKα, IκBα, p65)” value is “suppresses RANKL-induced NF-κB signaling”. Besides, in the test with OVX mice [2], the BV/TV is 0.134 and 0.2459 and 0.2549 and 0.1314 and 0.1319 and 0.1667 and 0.09144 and 0.215; the Tb.N was 3.01 1/mm and 5.848 1/mm and 5.596 1/mm and 2.742 1/mm and 2.832 1/mm and 3.86 1/mm and 1.833 1/mm and 4.649 1/mm; the Tb.Th is 0.0445 mm and 0.04205 mm and 0.04556 mm and 0.04792 mm and 0.04659 mm and 0.04318 mm and 0.04987 mm and 0.04624 mm. In addition, the “numbers of osteoclast, histology” value in the test on OVX mice [3] was “significantly decreased the numbers of osteoclast”. Moreover, the “Spleen lymphocyte transforming index” value in the test with OVX mice [4] is 0.337 and 0.404 and 0.3367 and 0.4323 and 0.2993 and 0.3783 and 0.2337 and 0.316. Also, the “STD-NMR binding to L-RANKL (mRANKL)” value at L-RANKL was “low binding affinity”.
